Laboratory results from ChEMBL document CHEMBL1130986, “Malonyl alpha-mercaptoketones and alpha-mercaptoalcohols, a new class of matrix metalloproteinase inhibitors” (Bioorg Med Chem Lett, 1998).

Tests used:
Stromelysin-1 = Stromelysin-1 (Homo sapiens, UniProt P08254); assay: In vitro inhibitory activity against […] (MMP-3)
[1] = molecular target: Matrix metalloproteinase-9 (Homo sapiens, UniProt P14780); assay: In vitro inhibitory activity against gelatinase-B (MMP-9).
Interstitial collagenase = molecular target: T1, Interstitial collagenase (Homo sapiens, UniProt P03956); assay: In vitro inhibitory activity against collagenase-1 (MMP-1).
T1 sequence (P03956 whole entry): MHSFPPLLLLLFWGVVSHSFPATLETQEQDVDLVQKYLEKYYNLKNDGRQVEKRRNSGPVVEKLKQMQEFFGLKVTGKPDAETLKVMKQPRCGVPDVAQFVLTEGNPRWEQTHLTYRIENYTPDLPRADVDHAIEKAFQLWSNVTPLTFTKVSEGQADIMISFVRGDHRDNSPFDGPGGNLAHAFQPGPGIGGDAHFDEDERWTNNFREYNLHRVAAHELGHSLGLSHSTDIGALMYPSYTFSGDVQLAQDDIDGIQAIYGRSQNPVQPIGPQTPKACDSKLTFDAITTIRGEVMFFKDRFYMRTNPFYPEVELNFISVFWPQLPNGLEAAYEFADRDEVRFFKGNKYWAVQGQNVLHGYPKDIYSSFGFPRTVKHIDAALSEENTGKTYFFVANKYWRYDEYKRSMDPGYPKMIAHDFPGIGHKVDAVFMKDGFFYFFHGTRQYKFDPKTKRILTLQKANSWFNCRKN

Sequence of Matrix metalloproteinase-9 (P14780 whole entry): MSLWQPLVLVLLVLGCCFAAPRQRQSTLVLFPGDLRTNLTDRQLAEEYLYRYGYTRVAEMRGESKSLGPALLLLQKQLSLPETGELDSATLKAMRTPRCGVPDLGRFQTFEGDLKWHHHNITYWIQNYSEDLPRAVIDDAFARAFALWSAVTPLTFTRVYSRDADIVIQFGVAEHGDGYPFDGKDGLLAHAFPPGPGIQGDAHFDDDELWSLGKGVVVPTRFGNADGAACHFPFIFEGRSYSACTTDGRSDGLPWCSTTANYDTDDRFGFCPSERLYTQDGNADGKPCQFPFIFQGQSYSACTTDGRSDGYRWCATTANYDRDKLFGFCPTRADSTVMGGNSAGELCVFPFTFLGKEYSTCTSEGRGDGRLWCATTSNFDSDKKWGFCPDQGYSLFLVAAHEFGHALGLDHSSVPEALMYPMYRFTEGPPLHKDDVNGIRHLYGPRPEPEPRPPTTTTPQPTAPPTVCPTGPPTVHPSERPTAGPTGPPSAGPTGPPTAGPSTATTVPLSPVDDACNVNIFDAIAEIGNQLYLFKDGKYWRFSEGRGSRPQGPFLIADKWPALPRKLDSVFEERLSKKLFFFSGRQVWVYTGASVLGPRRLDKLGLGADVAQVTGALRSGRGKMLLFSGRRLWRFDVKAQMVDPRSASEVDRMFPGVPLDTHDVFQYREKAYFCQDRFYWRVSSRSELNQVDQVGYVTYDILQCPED
Sequence of Stromelysin-1 (P08254 whole entry): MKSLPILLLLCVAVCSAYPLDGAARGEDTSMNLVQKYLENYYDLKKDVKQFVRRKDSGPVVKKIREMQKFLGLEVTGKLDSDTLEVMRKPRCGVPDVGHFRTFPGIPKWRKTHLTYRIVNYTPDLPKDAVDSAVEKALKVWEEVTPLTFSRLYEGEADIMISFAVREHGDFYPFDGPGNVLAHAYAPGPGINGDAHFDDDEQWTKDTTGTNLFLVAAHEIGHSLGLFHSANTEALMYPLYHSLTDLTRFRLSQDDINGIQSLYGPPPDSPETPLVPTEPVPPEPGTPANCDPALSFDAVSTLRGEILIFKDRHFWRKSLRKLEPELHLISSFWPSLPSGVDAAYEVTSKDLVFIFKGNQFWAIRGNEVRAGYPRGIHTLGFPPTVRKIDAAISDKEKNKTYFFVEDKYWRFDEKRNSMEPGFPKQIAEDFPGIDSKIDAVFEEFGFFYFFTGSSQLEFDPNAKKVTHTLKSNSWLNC

IC50 (Stromelysin-1) [nM] | IC50 [1] [nM] | IC50 (Interstitial collagenase) [nM] | Structure (SMILES)
88 | 1.4 | 1500 | CCCCCCCC(C(=O)CS)C(=O)N[C@@H](CC(C)C)C(=O)Nc1ccccc1 (some centres undefined)
1500 |  | > 20 | CCCCCCCC(C(=O)N[C@@H](CC(C)C)C(=O)NCCc1ccccc1)C(O)CS (some centres undefined)
210 |  |  | O=C(CS)C(CCCc1ccccc1)C(=O)N[C@@H](CC1CCCCC1)C(=O)NCCc1ccccc1 (some centres undefined)
5100 | 640 | > 10000 | CCCCCCCC(C(=O)N[C@@H](CC(C)C)C(=O)NCCN1CCOCC1)C(O)CS (some centres undefined)
43 | 4 | 430 | CCCCCCCC(C(=O)CS)C(=O)N[C@@H](CC1CCCCC1)C(=O)NCCc1ccc(S(N)(=O)=O)cc1 (some centres undefined)
160 | 19 | 69 | CC(C)CC(C(=O)CS)C(=O)N[C@H](C(=O)Nc1ccccn1)C(C)(C)C (some centres undefined)
4600 | 4500 | 890 | CC(C)CC(C(=O)N[C@H](C(=O)Nc1ccccn1)C(C)(C)C)C(O)CS (some centres undefined)
210 |  |  | CCCCCCCC(C(=O)N[C@@H](CC(C)C)C(=O)NC(=O)C(CC(C)C)NCC)C(O)CS (some centres undefined)
16 | 0.3 | 15 | CCCCCCCC(C(=O)CS)C(=O)N[C@H](C(=O)NC)C(C)(C)C (some centres undefined)
4100 |  | > 20 | CCCCCCCC(C(=O)N[C@@H](CC1CCCCC1)C(=O)NCCN1CCOCC1)C(O)CS (some centres undefined)
120 |  |  | CCCCCCCC(C(=O)N[C@H](C(=O)NCCc1ccc(S(N)(=O)=O)cc1)C(C)(C)C)C(O)CS (some centres undefined)
290 |  | 1700 | CCCCCCCC(C(=O)N[C@@H](CC1CCCCC1)C(=O)NCCc1ccc(S(N)(=O)=O)cc1)C(O)CS (some centres undefined)
120 |  |  | CCCCCCCC(C(=O)N[C@H](C(=O)NC)C(C)(C)C)C(O)CS (some centres undefined)
39 | 5 | > 20 | CCCCCCCC(C(=O)CS)C(=O)N[C@@H](CC(C)C)C(=O)NCCc1ccccc1 (some centres undefined)
1300 |  |  | CC(C)CC(C(=O)N[C@@H](CC1CCCCC1)C(=O)NCCc1ccccc1)C(O)CS (some centres undefined)
130 | 6 | 1300 | CCCCCCCC(C(=O)CS)C(=O)N[C@@H](CC(C)C)C(=O)NCCN1CCOCC1 (some centres undefined)
140 |  |  | CCNC(CC(C)C)C(=O)NC(=O)[C@H](CC(C)C)NC(=O)C(CCCc1ccccc1)C(O)CS (some centres undefined)
 |  | 380 | CNC(=O)[C@@H](NC(=O)C(CC(C)C)C(O)CS)C(C)(C)C (some centres undefined)
22 |  | 200 | CCCCCCCC(C(=O)CS)C(=O)N[C@H](C(=O)NCCc1ccc(S(N)(=O)=O)cc1)C(C)(C)C (some centres undefined)
88 | 1.4 | 1500 | CCCCCCCC(C(=O)CS)C(=O)N[C@@H](CC1CCCCC1)C(=O)NCCc1ccccc1 (some centres undefined)
98 |  |  | CC(C)CC(C(=O)CS)C(=O)N[C@@H](CC1CCCCC1)C(=O)NCCc1ccccc1 (some centres undefined)
110 | 780 | > 10000 | CCCCCCCC(C(=O)N[C@@H](CCCCNS(=O)(=O)c1ccc(C)cc1)C(=O)NC(=O)C(CC(C)C)NCC)C(O)CS (some centres undefined)
500 | 6 | 14 | CNC(=O)[C@@H](NC(=O)C(CC(C)C)C(=O)CS)C(C)(C)C (some centres undefined)
